Measured values as given in PubChem BioAssay (NCI).
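A five-concentration, 48-hour dose response in 96-well plates underlies each endpoint, interpolated linearly between surrounding concentrations. TGI denotes the concentration required for complete inhibition of growth.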

What was measured:
Test in all cases: inhibition of tumour cell growth, NCI panel, 48 h
SF-539 CNS = tested on: SF-539 CNS
LOX IMVI melanoma = tested on: LOX IMVI melanoma
SK-MEL-2 melanoma = tested on: SK-MEL-2 melanoma
MALME-3M melanoma = tested on: MALME-3M melanoma
RXF 393 renal = tested on: RXF 393 renal
U251 CNS = tested on: U251 CNS
UACC-257 melanoma = tested on: UACC-257 melanoma
HL-60(TB) leukemia = tested on: HL-60(TB) leukemia
SF-268 CNS = tested on: SF-268 CNS
SW-620 colon = tested on: SW-620 colon
OVCAR-4 ovarian = tested on: OVCAR-4 ovarian
CAKI-1 renal = tested on: CAKI-1 renal
OVCAR-3 ovarian = tested on: OVCAR-3 ovarian
HT29 colon = tested on: HT29 colon
UO-31 renal = tested on: UO-31 renal
A498 renal = tested on: A498 renal
ACHN renal = tested on: ACHN renal
M14 melanoma = tested on: M14 melanoma
SK-MEL-28 melanoma = tested on: SK-MEL-28 melanoma
HCT-15 colon = tested on: HCT-15 colon
SNB-75 CNS = tested on: SNB-75 CNS
DMS 114 small cell lung = tested on: DMS 114 small cell lung
RXF-631 renal = tested on: RXF-631 renal
SK-OV-3 ovarian = tested on: SK-OV-3 ovarian
NCI-H460 lung = tested on: NCI-H460 lung
KM20L2 colon = tested on: KM20L2 colon
KM12 colon = tested on: KM12 colon
MOLT-4 leukemia = tested on: MOLT-4 leukemia
DLD-1 colon = tested on: DLD-1 colon
NCI-H522 lung = tested on: NCI-H522 lung
LXFL 529 NSCLC = tested on: LXFL 529 NSCLC
EKVX NSCLC = tested on: EKVX NSCLC
SF-295 CNS = tested on: SF-295 CNS
IGROV1 ovarian = tested on: IGROV1 ovarian
COLO 205 colon = tested on: COLO 205 colon
RPMI-8226 leukemia = tested on: RPMI-8226 leukemia
A549 NSCLC = tested on: A549 NSCLC
SK-MEL-5 melanoma = tested on: SK-MEL-5 melanoma
SNB-78 CNS = tested on: SNB-78 CNS
TK-10 renal = tested on: TK-10 renal
HOP-62 NSCLC = tested on: HOP-62 NSCLC
NCI-H226 lung = tested on: NCI-H226 lung
CCRF-CEM leukemia = tested on: CCRF-CEM leukemia
786-0 renal = tested on: 786-0 renal
K-562 leukemia = tested on: K-562 leukemia
XF 498 CNS = tested on: XF 498 CNS
SN12C renal = tested on: SN12C renal
NCI-H23 lung = tested on: NCI-H23 lung
HOP-92 NSCLC = tested on: HOP-92 NSCLC
OVCAR-8 ovarian = tested on: OVCAR-8 ovarian
OVCAR-5 ovarian = tested on: OVCAR-5 ovarian
HCC-2998 colon = tested on: HCC-2998 colon
UACC-62 melanoma = tested on: UACC-62 melanoma
DMS 273 small cell lung = tested on: DMS 273 small cell lung
SNB-19 CNS = tested on: SNB-19 CNS

With `O=C1O[C@@H](c2ccccc2)C[C@H]1CN1CCOCC1` the TGI (SF-539 CNS) was over 100 µM, the TGI (LOX IMVI melanoma) was over 100 µM and the TGI (SK-MEL-2 melanoma) was over 100 µM. For the same compound, the TGI (MALME-3M melanoma) was over 100 µM, the TGI (RXF 393 renal) was over 100 µM and the TGI (U251 CNS) was over 100 µM. It also gave a TGI (UACC-257 melanoma) of over 100 µM, a TGI (HL-60(TB) leukemia) of over 100 µM and a TGI (SF-268 CNS) of over 100 µM. For the same compound, the TGI (SW-620 colon) was over 100 µM, the TGI (OVCAR-4 ovarian) was over 100 µM and the TGI (CAKI-1 renal) was 41.3 µM. The TGI (OVCAR-3 ovarian) was over 100 µM, the TGI (HT29 colon) was over 100 µM and the TGI (UO-31 renal) was over 100 µM. It also gave a TGI (A498 renal) of over 100 µM, a TGI (ACHN renal) of over 100 µM and a TGI (M14 melanoma) of over 100 µM. It also gave a TGI (SK-MEL-28 melanoma) of over 100 µM, a TGI (HCT-15 colon) of over 100 µM and a TGI (SNB-75 CNS) of over 100 µM. For the same compound, the TGI (DMS 114 small cell lung) was over 100 µM, the TGI (RXF-631 renal) was over 100 µM and the TGI (SK-OV-3 ovarian) was over 100 µM. For the same compound, the TGI (NCI-H460 lung) was over 100 µM, the TGI (KM20L2 colon) was over 100 µM and the TGI (KM12 colon) was over 100 µM. The TGI (MOLT-4 leukemia) was over 100 µM, the TGI (DLD-1 colon) was over 100 µM and the TGI (NCI-H522 lung) was over 100 µM. It also gave a TGI (LXFL 529 NSCLC) of over 100 µM, a TGI (EKVX NSCLC) of over 100 µM and a TGI (SF-295 CNS) of over 100 µM. The TGI (IGROV1 ovarian) was over 100 µM, the TGI (COLO 205 colon) was over 100 µM and the TGI (RPMI-8226 leukemia) was over 100 µM. It also gave a TGI (A549 NSCLC) of over 100 µM, a TGI (SK-MEL-5 melanoma) of over 100 µM and a TGI (SNB-78 CNS) of over 100 µM. It also gave a TGI (TK-10 renal) of over 100 µM, a TGI (HOP-62 NSCLC) of over 100 µM and a TGI (NCI-H226 lung) of over 100 µM. The TGI (CCRF-CEM leukemia) was over 100 µM, the TGI (786-0 renal) was over 100 µM and the TGI (K-562 leukemia) was over 100 µM. For the same compound, the TGI (XF 498 CNS) was over 100 µM, the TGI (SN12C renal) was over 100 µM and the TGI (NCI-H23 lung) was 35.4 µM. The TGI (HOP-92 NSCLC) was over 100 µM, the TGI (OVCAR-8 ovarian) was over 100 µM and the TGI (OVCAR-5 ovarian) was over 100 µM. For the same compound, the TGI (HCC-2998 colon) was over 100 µM and the TGI (UACC-62 melanoma) was over 100 µM.

For `c1ccc2c(c1)c1ccccc1c1n[se]nc21`, the TGI (SF-539 CNS) was 92.2 µM, the TGI (LOX IMVI melanoma) was over 100 µM and the TGI (SK-MEL-2 melanoma) was over 100 µM. It also gave a TGI (MALME-3M melanoma) of over 100 µM, a TGI (RXF 393 renal) of over 100 µM and a TGI (U251 CNS) of over 100 µM. It also gave a TGI (UACC-257 melanoma) of over 100 µM, a TGI (DMS 273 small cell lung) of over 100 µM and a TGI (HL-60(TB) leukemia) of over 100 µM. It also gave a TGI (SF-268 CNS) of over 100 µM, a TGI (SW-620 colon) of over 100 µM and a TGI (OVCAR-4 ovarian) of over 100 µM. For the same compound, the TGI (CAKI-1 renal) was over 100 µM, the TGI (HT29 colon) was over 100 µM and the TGI (UO-31 renal) was over 100 µM. For the same compound, the TGI (A498 renal) was 67.1 µM, the TGI (ACHN renal) was over 100 µM and the TGI (M14 melanoma) was over 100 µM. For the same compound, the TGI (SK-MEL-28 melanoma) was over 100 µM, the TGI (HCT-15 colon) was over 100 µM and the TGI (SNB-75 CNS) was 59 µM. For the same compound, the TGI (DMS 114 small cell lung) was over 100 µM, the TGI (RXF-631 renal) was over 100 µM and the TGI (SK-OV-3 ovarian) was 64.3 µM. For the same compound, the TGI (NCI-H460 lung) was over 100 µM, the TGI (KM20L2 colon) was over 100 µM and the TGI (KM12 colon) was over 100 µM. For the same compound, the TGI (MOLT-4 leukemia) was over 100 µM, the TGI (DLD-1 colon) was over 100 µM and the TGI (NCI-H522 lung) was over 100 µM. It also gave a TGI (LXFL 529 NSCLC) of 48.6 µM, a TGI (EKVX NSCLC) of over 100 µM and a TGI (SF-295 CNS) of over 100 µM. The TGI (IGROV1 ovarian) was over 100 µM, the TGI (COLO 205 colon) was over 100 µM and the TGI (RPMI-8226 leukemia) was over 100 µM. The TGI (A549 NSCLC) was over 100 µM, the TGI (SK-MEL-5 melanoma) was over 100 µM and the TGI (SNB-78 CNS) was over 100 µM. For the same compound, the TGI (TK-10 renal) was over 100 µM, the TGI (CCRF-CEM leukemia) was over 100 µM and the TGI (786-0 renal) was over 100 µM. It also gave a TGI (SNB-19 CNS) of over 100 µM, a TGI (K-562 leukemia) of over 100 µM and a TGI (XF 498 CNS) of 77.2 µM. It also gave a TGI (SN12C renal) of over 100 µM, a TGI (NCI-H23 lung) of over 100 µM and a TGI (OVCAR-8 ovarian) of over 100 µM. It also gave a TGI (OVCAR-5 ovarian) of over 100 µM and a TGI (UACC-62 melanoma) of over 100 µM.
